The values below come from patent US20150119363A1, “METHODS OF TREATING BACTERIAL INFECTIONS” (Rampex Pharmaceuticals, Inc., priority 2012, published 2015).

Values after ≈ are worked out from the molar mass of the structure shown. Bounds are passed on as bounds.

The test system of assay [1] is Klebsiella pneumonia (KPM1097) NDM-1, KPC-2. As to the kind of experiment: Biapenem MIC at various concentrations of Compound 5. As to conditions: Klebsiella pneumoniae. The assay is classed as cell-based.
Assay [2] deals with Escherichia coli EC1007 (KPC-3). As to the kind of experiment: Checkerboard assay, Compound 5 with biapenem. The settings on record: Escherichia coli. Format: cell-based. The text has this:
(§1) The potentiation effect is observed by the reduction of the minimum inhibitory concentration of β-lactam antibiotics in the presence of β-lactamase inhibitors (BLIs). […] Methods for Dilution of Antimicrobial Susceptibility Tests for Bacteria That Grow Aerobically—Eighth Edition; Approved Standard. CLSI Document M07-A8, 2009). In this assay, multiple dilutions of two drugs, namely BLI and β-lactam (biapenem), are being tested, alone and in combination, at concentrations equal to, above and below their respective minimal inhibitory concentrations (MICs). BLIs are solubilized in 10% DMSO at 10 mg/mL. Stock solutions are further diluted, according to the needs of a particular assay, in Mueller Hinton Broth (MHB). Stock solution can be stored at −80° C.
(§2) The checkerboard (CB) assay is performed in microtiter plates. Biapenem is diluted in the x axis, each column containing a single concentration of antibiotic. BLIs are diluted in the y axis, each row containing an equal concentration of BLI. The result of these manipulations is that each well of the microtiter plate contains a unique combination of concentrations of the two agents. The assay is performed in MHB with a final bacterial inoculum of 5×10^5 CFU/mL (from an early-log phase culture). Microtiter plates are incubated during 20 h at 35° C. and are read using a microtiter plate reader (Molecular Devices) at 650 nm as well as visual observation using a microtiter plate reading mirror.

In assay [3] the test system is Klebsiella oxytoca KX1018 (KPC-2, SHV-40, OXY-1). Kind of assay: Checkerboard assay, Compound 5 with biapenem. Format: cell-based. As to conditions: Klebsiella oxytoca.
From the text: as §1, §2

Assay [4] concerns Enterobacter cloacae ECL1059 (KPC-3, SHV-12, TEM-1). As to the kind of experiment: Checkerboard assay, Compound 5 with biapenem. Format: cell-based. The settings on record: Enterobacter cloacae.
From the text: as §1, §2

Assay [5] deals with Klebsiella pneumoniae KP1083 (KPC-3, SHV-1, TEM-1). As to the kind of experiment: Checkerboard assay, Compound 5 with biapenem. The assay is classed as cell-based. As to conditions: Klebsiella pneumoniae.
From the text: as §1, §2

For assay [6], the system named is Klebsiella pneumoniae KP1082 (KPC-2, SHV-1). Kind of assay: Checkerboard assay, Compound 5 with biapenem. Format: cell-based. The settings on record: Klebsiella pneumoniae.
From the text: as §1, §2

For assay [7], the system named is Enterobacter cloacae ECL1058 (KPC-3, SHV-11, TEM-1). Kind of assay: Checkerboard assay, Compound 5 with biapenem. Format: cell-based. The settings on record: Enterobacter cloacae.
From the text: as §1, §2

The test system of assay [8] is Klebsiella pneumoniae KP1087 (KPC-2, CTX-M-15, SHV-11, TEM-1). Kind of assay: Checkerboard assay, Compound 5 with biapenem. The assay is classed as cell-based. The settings on record: Klebsiella pneumoniae.
From the text: as §1, §2

Assay [9] concerns Klebsiella pneumoniae KP1004 (KPC-2). As to the kind of experiment: Checkerboard assay, Compound 5 with biapenem. The assay is classed as cell-based. The settings on record: Klebsiella pneumoniae.
From the text: as §1, §2

In assay [10] the test system is Klebsiella pneumoniae KP1088 (KPC-3, SHV-11, TEM-1). As to the kind of experiment: Checkerboard assay, Compound 5 with biapenem. Format: cell-based. As to conditions: Klebsiella pneumoniae.
From the text: as §1, §2

Assay [11] has as its system Klebsiella oxytoca KX1017 (KPC-2, OXA-2, SHV-30). Kind of assay: Checkerboard assay, Compound 5 with biapenem. Format: cell-based. The settings on record: Klebsiella oxytoca.
From the text: as §1, §2

Assay [12] has as its system Klebsiella pneumoniae KP1008 (KPC-2). As to the kind of experiment: Checkerboard assay, Compound 5 with biapenem. The assay is classed as cell-based. The settings on record: Klebsiella pneumoniae.
From the text: as §1, §2

Assay [13] relates to Klebsiella oxytoca KX1019 (KPC-2, OXA-2). As to the kind of experiment: Checkerboard assay, Compound 5 with biapenem. The assay is classed as cell-based. The settings on record: Klebsiella oxytoca.
From the text: as §1, §2

The subject of assay [14] is Klebsiella pneumoniae KP1084 (KPC-3, SHV-11, TEM-1). Kind of assay: Checkerboard assay, Compound 5 with biapenem. The assay is classed as cell-based. As to conditions: Klebsiella pneumoniae.
From the text: as §1, §2

The test system of a further assay is EC1007 KPC-3. As to the kind of experiment: Dose titration biapenem potentiation assay (MPC1). The assay is classed as cell-based, Escherichia coli. The essentials:
(§3)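 Growth of carbapenemase-expressing strains measured with biapenem held at a sub-inhibitory 1 μg/mL; BLI compounds titrated from a top concentration of 40 μg/mL. MPC1 is the inhibitor concentration that restores growth inhibition by biapenem.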

For another assay, the system named is ECL1004 NMC-A. As to the kind of experiment: Dose titration biapenem potentiation assay (MPC1). The assay is classed as cell-based, Enterobacter cloacae. In outline:
as §3

The next assay relates to KP1008 KPC-2. Kind of assay: Dose titration biapenem potentiation assay (MPC1). Format: cell-based, Klebsiella pneumoniae.
The next assay concerns KP1004 KPC-2. Kind of assay: Dose titration biapenem potentiation assay (MPC1). The assay is classed as cell-based, Klebsiella pneumoniae.
Assay [15] concerns Escherichia coli (EC1061) NDM-1. Kind of assay: Biapenem MIC at various concentrations of Compound 5. Format: cell-based. The settings on record: Escherichia coli.
In assay [16] the test system is Klebsiella pneumonia (KP1004) KPC-2. Described as above. The assay is classed as cell-based. The settings on record: Klebsiella pneumoniae.
Assay [17] deals with T1, KPC-2 (Klebsiella pneumoniae KP1004 lysate) (Klebsiella pneumoniae, UniProt Q9F663).
T1 construct: Lysates were prepared from bacteria expressing various β-lactamases as a source of enzymes; endogenous in cells; host or cells: Klebsiella pneumoniae strains KP1004 and KP1008 (freeze-thaw lysate supernatants)
T1 sequence (Q9F663 25-293 limits assumed): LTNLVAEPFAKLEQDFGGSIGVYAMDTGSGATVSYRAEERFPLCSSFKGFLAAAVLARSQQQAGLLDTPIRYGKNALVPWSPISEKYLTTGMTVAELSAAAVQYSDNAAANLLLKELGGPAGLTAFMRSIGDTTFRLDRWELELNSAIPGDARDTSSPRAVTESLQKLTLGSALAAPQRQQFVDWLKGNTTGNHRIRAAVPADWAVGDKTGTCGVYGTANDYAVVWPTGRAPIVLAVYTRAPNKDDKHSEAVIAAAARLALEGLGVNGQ
As to the kind of experiment: Inhibition of biapenem hydrolysis by bacterial lysate. Format: biochemical. On the procedure:
(§4) The activity of β-lactamase inhibitors to inhibit hydrolysis of biapenem was studied. Lysates were prepared from bacteria expressing various β-lactamases as a source of enzymes. Bacterial lysates were prepared as follows. A single colony from the fresh overnight plate was transferred to 5 mL of LB broth and grown to OD600=0.6-0.8. Next, this culture was transferred to 500 mL of LB and grown to OD600=0.7-0.9. Cells were pelleted by centrifugation at 5000 RPM (JA-14 rotor) for 15 minutes at room temperature. The pellet was resuspended in 10 mL of PBS. Five freeze-thaw cycles by putting cells at −20° C. and thawing them at the room temperature were next applied. After the last thaw step cells were spun down at 18K for 30 minutes and the supernatant was collected. This lysate was stored at −20° C.
(§5) Next, the activity of bacterial lysates was optimized for biapenem cleavage as follows. 50 μl of buffer A (50 mM Sodium Phosphate pH=7; 0.5% glucose, 1 mM MgCl2) was added to each well of 96-well UV-transparent plate. 50 μl of lysate was titrated vertically in 96-well plate column to generate 2-fold lysate dilutions. 100 μl of buffer A was added to each well, placed in plate reader at 37° C. and incubated for 15 minutes. 50 μl of 50 μg/mL solutions of biapenem in buffer A (pre-incubated at 37° C. for 15 minutes) were added to each well. Hydrolysis of biapenem was measured at 296 nm. This experiment was used to determine the optimal lysate dilution which produced a linear curve of relative UV signal that decreased to approximately OD=0.3-0.5 over 1 hour.
(§6) Finally, the potency of cyclic boronic acid derivative to inhibit the cleavage of biapenem cleavage by bacterial lysates was determined. 100 μl of buffer A (50 mM Sodium Phosphate pH=7; 0.5% glucose, 1 mM MgCl2) was added to each well of 96-well UV-transparent plate. 50 μl of 6× cyclic boronic acid derivative solution in buffer A was titrated vertically in 96-well plate column to generate 3-fold dilutions. 50 μl of diluted lysate in buffer A (optimal dilution is determined in experiment above) was added, and the plate was incubated in the plate reader at 37° C. for 15 minutes. 50 μl of 50 μg/mL solution of biapenem in buffer A (pre-incubated at 37° C. for 15 minutes) were next added to each well and hydrolysis of biapenem was recorded at 296 nm. EC50 of inhibition was determined by plotting the rate of biapenem cleavage vs. cyclic boronic acid derivative concentration.

The target of assay [18] is T2, KPC-2 (Klebsiella pneumoniae KP1008 lysate) (Klebsiella pneumoniae, UniProt Q9F663).
T2 construct: Lysates were prepared from bacteria expressing various β-lactamases as a source of enzymes; endogenous in cells; host or cells: Klebsiella pneumoniae strains KP1004 and KP1008 (freeze-thaw lysate supernatants)
T2 sequence (Q9F663 25-293 limits assumed): as above
Described as above. The assay is classed as biochemical. On the procedure: as §4, §5, §6

Assay [19] concerns the target T3, SME-2 (Serratia marcescens SM1000 lysate) (Serratia marcescens, UniProt P52682).
T3 construct: Lysates were prepared from bacteria expressing various β-lactamases as a source of enzymes
The assay is described as above. The assay is classed as biochemical. As to conditions: SM1000 SME-2 lysate; read-out: IC50 (μg/mL) of inhibition of biapenem hydrolysis. On the procedure:
as §4, §5, §6

In assay [20] the target is T4, KPC-3 (Escherichia coli EC1007 lysate) (Klebsiella pneumoniae, UniProt Q9F663, H272Y).
T4 construct: Lysates were prepared from bacteria expressing various β-lactamases as a source of enzymes; endogenous in cells; host or cells: Escherichia coli strain EC1007 (freeze-thaw lysate supernatant)
T4 sequence (Q9F663 25-293 H272Y): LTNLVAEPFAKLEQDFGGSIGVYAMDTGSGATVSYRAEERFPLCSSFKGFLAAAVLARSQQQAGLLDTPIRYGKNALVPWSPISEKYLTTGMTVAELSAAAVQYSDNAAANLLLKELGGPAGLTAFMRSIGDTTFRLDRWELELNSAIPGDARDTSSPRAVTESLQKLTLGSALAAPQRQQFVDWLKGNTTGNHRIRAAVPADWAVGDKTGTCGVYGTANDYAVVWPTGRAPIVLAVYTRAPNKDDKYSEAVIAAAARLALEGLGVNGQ
The description is as above. Format: biochemical. As to conditions: EC1007 KPC-3 lysate; read-out: IC50 (μg/mL) of inhibition of biapenem hydrolysis. On the procedure:
as §4, §5, §6

Assay [21] has as its system Acinetobacter baumannii AB1057 (OXA-58). As to the kind of experiment: Checkerboard assay, biapenem potentiation (MPC8). The settings on record: concentration to reduce biapenem MIC 8-fold. Format: cell-based. On the procedure:
(§7) The potency and spectrum of β-lactamase inhibitors was determined by assessing their antibiotic potentiation activity.
as §1, §2
(§8) Biapenem is a carbapenem β-lactam; only selected β-lactamases confer resistance to this class of antibiotics. Among them are serine carbapemenases that belong to class A and class D. Biapenem potentiation is studied in strains expressing various carbapenemases from these classes using CB assays. […] Cyclic boronic acid derivatives were capable of reducing biapenem MICs up to 1000-fold (Table 3).

In assay [22] the test system is Acinetobacter baumannii AB1054 (OXA-23). Kind of assay: Checkerboard assay, biapenem potentiation (MPC8). The assay is classed as cell-based. As to conditions: concentration to reduce biapenem MIC 8-fold. On the procedure: as §7, §1, §2, §8
The subject of assay [23] is Klebsiella pneumoniae KP1004 (KPC-2). Kind of assay: Checkerboard assay, biapenem potentiation (MPC8). The settings on record: concentration to reduce biapenem MIC 8-fold. The assay is classed as cell-based. As to the method: as §7, §1, §2, §8

T3 sequence (P52682 28-294 limits assumed): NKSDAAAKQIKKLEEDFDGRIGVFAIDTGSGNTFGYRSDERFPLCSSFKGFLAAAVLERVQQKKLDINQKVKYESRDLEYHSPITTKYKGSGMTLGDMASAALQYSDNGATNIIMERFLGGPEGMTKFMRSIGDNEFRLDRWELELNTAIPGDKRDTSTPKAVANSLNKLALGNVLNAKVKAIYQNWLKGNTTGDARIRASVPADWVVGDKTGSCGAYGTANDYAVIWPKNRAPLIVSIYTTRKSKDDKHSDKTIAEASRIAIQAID

Consider `C[C@@H](O)[C@H]1C(=O)N2C(C(=O)[O-])=C(SC3Cn4cnc[n+]4C3)[C@H](C)[C@H]12` (stereo partly shown) [Biapenem, reference compound], for which the MIC in assay [1] was 16 µg/mL (≈ 45.7 µM); in assay [2], over 4 µg/mL; in [3], over 4 µg/mL; in assay [4], 0.5 to 4 µg/mL; in assay [5] it was over 4 µg/mL; in assay [6], 0.5 to 4 µg/mL. Further, the MIC in assay [7] was over 4 µg/mL; in assay [8] it was over 4 µg/mL; in [9] it was over 4 µg/mL; in [10], over 4 µg/mL; in assay [11] it was 0.5 to 4 µg/mL; in [12], over 4 µg/mL. The MIC in [13] was over 4 µg/mL; in assay [14] it was over 4 µg/mL; with EC1007 KPC-3 (Escherichia coli, EC1007 KPC-3), 4 µg/mL; with ECL1004 NMC-A (Enterobacter cloacae, ECL1004 NMC-A), 8 µg/mL; in the assay with KP1008 KPC-2 (Klebsiella pneumoniae, KP1008 KPC-2), 8 µg/mL; in the assay on KP1004 KPC-2 (Klebsiella pneumoniae, KP1004 KPC-2), over 8 µg/mL. Moreover, the MIC turned out to be 0.125 µg/mL (≈ 0.357 µM) in assay [15] and 8 µg/mL (≈ 22.8 µM) in [16].
In the case of `CC(=O)N[C@H]1CCC(CC(=O)O)OB1O` (stereo partly drawn) [Compound 3, 2-((3R)-3-acetamido-2-hydroxy-1,2-oxaborinan-6-yl)acetic acid], the “BPM MPC1 EC1007 KPC-3” value with EC1007 KPC-3 (biapenem 1 μg/mL) is recorded as “X (X = MPC1 of less than 1 μg/mL.)”. In addition, in the assay with ECL1004 NMC-A (biapenem 1 μg/mL), the “BPM MPC1 ECL1004 NMC-A” value is reported as “Y (Y = MPC1 of 1 μg/mL to 5 μg/mL.)”. Moreover, the IC50 in assay [17] was over 4.65 µM; in [18], over 4.65 µM; in assay [19], over 4.65 µM; in assay [20], 0.465 to 4.65 µM. The MPC8 result is “Z (Z = MPC8 of greater than 1 μg/mL.)” in [21], “Z (Z = MPC8 of greater than 1 μg/mL.)” in [22] and “X (X = MPC8 of less than 0.16 μg/mL.)” in assay [23]. Further, the “BPM MPC1 KP1008 KPC-2” value with KP1008 KPC-2 (biapenem 1 μg/mL) was “X (X = MPC1 of less than 1 μg/mL.)”. Moreover, the “BPM MPC1 KP1004 KPC-2” value with KP1004 KPC-2 (biapenem 1 μg/mL) is “X (X = MPC1 of less than 1 μg/mL.)”.

What is called MIC is the lowest concentration found to suppress growth.
